Among the data in ChEMBL document CHEMBL3352509, “Cyclic tertiary sulfamates: selective inhibition of the tumor-associated carbonic anhydrases IX and XII by N- and O-substituted acesulfame derivatives” (Eur J Med Chem, 2014) are Ki values, retold here.

Experiment [1] deals with Carbonic anhydrase 1 (Homo sapiens, UniProt P00915). The experiment can be described thus: Inhibition of human recombinant carbonic anhydrase 1 by stopped flow CO2 hydration method.
Experiment [2] deals with Carbonic anhydrase 2 (Homo sapiens, UniProt P00918). Nature of the experiment: Inhibition of human recombinant carbonic anhydrase 2 by stopped flow CO2 hydration method.
Experiment [3] deals with Carbonic anhydrase 9 (Homo sapiens, UniProt Q16790). The experiment can be described thus: Inhibition of human recombinant carbonic anhydrase 9 by stopped flow CO2 hydration method.
Experiment [4] addresses Carbonic anhydrase 12 (Homo sapiens, UniProt O43570). The experiment can be described thus: Inhibition of human recombinant carbonic anhydrase 12 by stopped flow CO2 hydration method.

Chain of Carbonic anhydrase 1 (P00915 whole entry): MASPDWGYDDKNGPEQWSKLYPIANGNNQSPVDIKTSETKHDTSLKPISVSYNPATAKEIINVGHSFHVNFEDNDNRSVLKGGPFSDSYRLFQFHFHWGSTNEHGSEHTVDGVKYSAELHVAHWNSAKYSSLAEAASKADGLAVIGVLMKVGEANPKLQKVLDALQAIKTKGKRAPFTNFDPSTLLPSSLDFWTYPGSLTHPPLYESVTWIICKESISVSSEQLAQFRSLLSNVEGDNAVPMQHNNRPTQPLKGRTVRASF
Chain of Carbonic anhydrase 12 (O43570 whole entry): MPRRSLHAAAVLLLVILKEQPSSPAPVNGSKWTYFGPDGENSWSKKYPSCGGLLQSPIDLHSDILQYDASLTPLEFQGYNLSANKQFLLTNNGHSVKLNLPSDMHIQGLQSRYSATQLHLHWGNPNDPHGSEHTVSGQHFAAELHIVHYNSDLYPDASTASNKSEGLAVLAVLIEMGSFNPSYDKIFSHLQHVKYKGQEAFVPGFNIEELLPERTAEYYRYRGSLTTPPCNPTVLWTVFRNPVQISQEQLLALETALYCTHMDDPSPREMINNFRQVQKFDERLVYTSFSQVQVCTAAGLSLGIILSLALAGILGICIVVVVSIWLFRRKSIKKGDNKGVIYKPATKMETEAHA

Consider `CCOC(=O)COC1=NS(=O)(=O)OC(C)=C1`, for which the results for the Ki in experiment [1], in experiment [2] and in experiment [3] were over 20 µM, over 20 µM and 0.043 µM, respectively.

For `C=CCN1C(=O)C=C(C)OS1(=O)=O`, the Ki – broadly, a dissociation constant, usually derived from enzyme kinetics or from competition with a known ligand – was over 20 µM in experiment [1], over 20 µM in experiment [2], 0.114 µM in experiment [3] and 0.103 µM in experiment [4].

With `CC1=CC(OCc2cccc([N+](=O)[O-])c2)=NS(=O)(=O)O1`, the Ki in experiment [1], in experiment [2] and in experiment [3] was over 20 µM in each case.

Take `CC1=CC(OCC(=O)c2ccccc2)=NS(=O)(=O)O1`: the Ki was over 20 µM in experiment [1], over 20 µM in experiment [2] and 0.0153 µM in experiment [3].

Turning to `CC1=CC(=O)N(Cc2ccccc2F)S(=O)(=O)O1`, the Ki in experiment [1] is over 20 µM; in experiment [2] it was over 20 µM; in experiment [3], 0.285 µM.

For the molecule `CC1=CC(=O)N(Cc2cccc([N+](=O)[O-])c2)S(=O)(=O)O1`, the Ki in experiment [1] is over 20 µM; in experiment [2] it was over 20 µM; in experiment [3], 0.267 µM.

With `CC1=CC(=O)N(CC(=O)c2cccc([N+](=O)[O-])c2)S(=O)(=O)O1`, the results for the Ki in experiment [1], in experiment [2] and in experiment [3] were 1.3 µM, 0.0255 µM and 0.0168 µM, respectively.

On to `C#CCOC1=NS(=O)(=O)OC(C)=C1`, for which the Ki in experiment [1] and in experiment [2] was over 20 µM each time.

Regarding `CC(=O)COC1=NS(=O)(=O)OC(C)=C1`, the Ki in experiment [1] was 2.49 µM; in experiment [2] it was over 20 µM; in experiment [3] it was over 20 µM.

Turning to `CC(=O)CN1C(=O)C=C(C)OS1(=O)=O`, the Ki is 15.6 µM in experiment [1], 2.18 µM in experiment [2] and over 20 µM in experiment [3].

Regarding `CC1=CC(OCc2ccccc2Br)=NS(=O)(=O)O1`, the results for the Ki in experiment [1], in experiment [2] and in experiment [3] were over 20 µM, over 20 µM and 0.249 µM, respectively.

For the molecule `CC1=CC(=O)N(Cc2c(F)cccc2F)S(=O)(=O)O1`, the Ki in experiment [1], in experiment [2] and in experiment [3] was over 20 µM each time.

With `CC1=CC(OCc2cccc(F)c2)=NS(=O)(=O)O1`, the Ki in experiment [1], in experiment [2] and in experiment [3] was over 20 µM throughout.

For `CC1=CC(=O)N(Cc2cccc(F)c2)S(=O)(=O)O1`, the Ki in experiment [1] is over 20 µM; in experiment [2], over 20 µM; in experiment [3], 0.275 µM.

On to `CC1=CC(OCc2ccccc2[N+](=O)[O-])=NS(=O)(=O)O1`, for which the results for the Ki in experiment [1], in experiment [2] and in experiment [3] were over 20 µM, over 20 µM and 0.041 µM, respectively.

In the case of `CC1=CC(=O)N(Cc2ccccc2[N+](=O)[O-])S(=O)(=O)O1`, the Ki in experiment [1] was over 20 µM; in experiment [2] it was over 20 µM; in experiment [3] it was 0.041 µM.

In the case of `CC1=CC(=O)N(Cc2ccc(C#N)cc2)S(=O)(=O)O1`, the Ki in experiment [1] is over 20 µM; in experiment [2], over 20 µM; in experiment [3], 0.309 µM.

Regarding `CCOC(=O)CN1C(=O)C=C(C)OS1(=O)=O`, the Ki is over 20 µM in experiment [1], over 20 µM in experiment [2] and 0.047 µM in experiment [3].

With `CC1=CC(=O)N(CC(=O)c2ccccc2)S(=O)(=O)O1`, the Ki in experiment [1] was over 20 µM; in experiment [2], over 20 µM; in experiment [3] it was 0.0057 µM.

As for `C=CCOC1=NS(=O)(=O)OC(C)=C1`, the Ki was over 20 µM in experiment [1], over 20 µM in experiment [2] and 0.199 µM in experiment [3].

Regarding `CC1=CC(=O)N(Cc2cccc(Br)c2)S(=O)(=O)O1`, the figures for the Ki in experiment [1], in experiment [2] and in experiment [3] were over 20 µM, over 20 µM and 0.284 µM, respectively.

For the molecule `CC1=CC(OCC#N)=NS(=O)(=O)O1`, the Ki in experiment [1] is 2.9 µM; in experiment [2], over 20 µM; in experiment [3], 0.047 µM.
